In patent publication US10870638B2, “Pyridazinone compound or its salt, and herbicide containing it” (ISHIHARA SANGYO KAISHA, LTD., priority 2016, dated 2020):

Columns and labels:
Format in all cases: in vivo
Conditions in all cases: 14th day after application
[1] = system: wheat (Triticum aestivum L.); experiment: Test Example 1: foliar treatment, growth inhibition rate on 14th day
How it was run: (§1)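 Visual 0–100% inhibition scoring (100 = complete kill) at 14 days after foliar treatment of soil-grown seedlings at species-specific leaf stages, with the compound sprayed as a wettable powder or emulsifiable concentrate dilution.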

[2] = system: soybean (Glycine max Merr.); experiment: as above
How it was run: (§2)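 Compounds applied once to leaves of pot-grown plants; wild oat at 0.4–1.2 leaf, foxtail 0.5–3.2, rice 0.2–2.7, soybean primary leaf. Inhibition estimated by eye on day 14.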

[3] = system: wild oat (Avena fatua L.); experiment: as above
How it was run: as §2

[4] = system: crabgrass (Digitaria sanquinalis L.); experiment: as above
How it was run: as §1

rice (Oryza sativa L.) [5] = experiment: as above
How it was run: as §2

[6] = system: redroot pigweed (Amaranthus retroflexus L.); experiment: as above
How it was run: as §1

[7] = system: italian ryegrass (Lolium multiflorum Lam.); experiment: as above
How it was run: as §1

[8] = system: green foxtail (Setaria viridis L.); experiment: as above
How it was run: as §2

corn (Zea mays L.) [9] = experiment: as above
How it was run: as §1

[10] = system: barnyardgrass (Echinochloa crus-qalli L.); experiment: as above
How it was run: as §1

[11] = system: velvetleaf (Abutilon theophrasti MEDIC.); experiment: Test Example 2: soil application on the day after sowing, growth inhibition rate on 14th day
How it was run: (§3)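 Read-out is visual percent growth inhibition 14 days post-application, scaled from 0 (as non-treated) to 100 (complete kill). Treatment: soil application by small sprayer the day after sowing, compound formulations diluted in water equivalent to 1,000 L/ha.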

[12] = system: wheat (Triticum aestivum L.); experiment: as above
How it was run: as §3

[13] = system: soybean (Glycine max Merr.); experiment: as above
How it was run: as §3

[14] = system: crabgrass (Digitaris sanquinalis L.); experiment: as above
How it was run: as §3

rice (Oryza sativa L.) [15] = experiment: as above
How it was run: as §3

[16] = system: prickly sida (Sida spinosa L.); experiment: as above
How it was run: as §3

[17] = system: redroot pigweed (Amaranthus retroflexus L.); experiment: as above
How it was run: as §3

[18] = system: green foxtail (Setaria viridis L.); experiment: as above
How it was run: as §3

corn (Zea mays L.) [19] = experiment: as above
How it was run: as §3

[20] = system: barnyardgrass (Echinochloa crus-qalli L.); experiment: as above
How it was run: as §3

[21] = active ingredient amount 31 g/ha
[22] = active ingredient amount 500 g/ha

| SMILES | Growth inhibition rate (%) Wheat [1, 21] [%] | Growth inhibition rate (%) Soybean [2, 21] [%] | Growth inhibition rate (%) Wild oat [3, 21] [%] | Growth inhibition rate (%) Crabgrass [4, 21] [%] | Growth inhibition rate (%) Rice (rice (Oryza sativa L.) [5]; [21]) [%] | Growth inhibition rate (%) Redroot pigweed [6, 21] [%] | Growth inhibition rate (%) Italian ryegrass [7, 21] [%] | Growth inhibition rate (%) Green foxtail [8, 21] [%] | Growth inhibition rate (%) Corn (corn (Zea mays L.) [9]; [21]) [%] | Growth inhibition rate (%) Barnyardgrass [10, 21] [%] | Growth inhibition rate (%) Velvetleaf [11, 21] [%] | Growth inhibition rate (%) Wheat [12, 21] [%] | Growth inhibition rate (%) Soybean [13, 21] [%] | Growth inhibition rate (%) Crabgrass [14, 21] [%] | Growth inhibition rate (%) Rice (rice (Oryza sativa L.) [15]; [21]) [%] | Growth inhibition rate (%) Prickly sida [16, 21] [%] | Growth inhibition rate (%) Redroot pigweed [17, 21] [%] | Growth inhibition rate (%) Green foxtail [18, 21] [%] | Growth inhibition rate (%) Corn (corn (Zea mays L.) [19]; [21]) [%] | Growth inhibition rate (%) Barnyardgrass [20, 21] [%] | further results |
| --- | --- | --- | --- | --- | --- | --- | --- | --- | --- | --- | --- | --- | --- | --- | --- | --- | --- | --- | --- | --- | --- |
| CC(=O)Oc1c(C)nn(C)c(=O)c1-c1cc(Oc2ncc(Br)cc2Cl)ccc1C [Compound 2-135] | 88 | 0 | 90 | 90 | 80 | 0 | 95 | 95 | 93 | 93 | 0 | 0 | 10 | 75 | 0 | 0 | 0 | 90 | 0 | 90 | – |
| CC(=O)Oc1c(C)nn(C)c(=O)c1-c1cc(Oc2nc3ccccc3o2)ccc1C [Compound 2-138] | 10 | 0 | 20 | 65 | 35 | 0 | 20 | 65 | 15 | 90 | 0 | 0 | 0 | 83 | 25 | 0 | 0 | 90 | 0 | 93 | – |
| CC(=O)Oc1c(C)nn(C)c(=O)c1-c1cc(Oc2ccc3ccccc3n2)ccc1C [Compound 2-142] | – | – | – | – | – | – | – | – | – | – | – | – | – | – | – | – | – | – | – | – | Growth inhibition rate (%) Wheat [1, 22]: 50%; Growth inhibition rate (%) Soybean [2, 22]: 25%; Growth inhibition rate (%) Wild oat [3, 22]: 50%; Growth inhibition rate (%) Crabgrass [4, 22]: 83%; Growth inhibition rate (%) Rice (rice (Oryza sativa L.) [5]; [22]): 80%; Growth inhibition rate (%) Redroot pigweed [6, 22]: 0%; Growth inhibition rate (%) Italian ryegrass [7, 22]: 0%; Growth inhibition rate (%) Green foxtail [8, 22]: 90%; Growth inhibition rate (%) Corn (corn (Zea mays L.) [9]; [22]): 20%; Growth inhibition rate (%) Barnyardgrass [10, 22]: 100%; Growth inhibition rate (%) Velvetleaf [11, 22]: 0%; Growth inhibition rate (%) Wheat [12, 22]: 0%; Growth inhibition rate (%) Soybean [13, 22]: 0%; Growth inhibition rate (%) Crabgrass [14, 22]: 98%; Growth inhibition rate (%) Rice (rice (Oryza sativa L.) [15]; [22]): 90%; Growth inhibition rate (%) Prickly sida [16, 22]: 0%; Growth inhibition rate (%) Redroot pigweed [17, 22]: 0%; Growth inhibition rate (%) Green foxtail [18, 22]: 93%; Growth inhibition rate (%) Corn (corn (Zea mays L.) [19]; [22]): 0%; Growth inhibition rate (%) Barnyardgrass [20, 22]: 100% |
| CC(=O)Oc1c(C)nn(C)c(=O)c1-c1cc(Oc2cnc3ccccc3c2)ccc1C [Compound 2-146] | – | – | – | – | – | – | – | – | – | – | – | – | – | – | – | – | – | – | – | – | Growth inhibition rate (%) Wheat [1, 22]: 50%; Growth inhibition rate (%) Soybean [2, 22]: 10%; Growth inhibition rate (%) Wild oat [3, 22]: 80%; Growth inhibition rate (%) Crabgrass [4, 22]: 95%; Growth inhibition rate (%) Rice (rice (Oryza sativa L.) [5]; [22]): 75%; Growth inhibition rate (%) Redroot pigweed [6, 22]: 0%; Growth inhibition rate (%) Italian ryegrass [7, 22]: 20%; Growth inhibition rate (%) Green foxtail [8, 22]: 95%; Growth inhibition rate (%) Corn (corn (Zea mays L.) [9]; [22]): 85%; Growth inhibition rate (%) Barnyardgrass [10, 22]: 99%; Growth inhibition rate (%) Velvetleaf [11, 22]: 50%; Growth inhibition rate (%) Wheat [12, 22]: 0%; Growth inhibition rate (%) Soybean [13, 22]: 0%; Growth inhibition rate (%) Crabgrass [14, 22]: 100%; Growth inhibition rate (%) Rice (rice (Oryza sativa L.) [15]; [22]): 85%; Growth inhibition rate (%) Prickly sida [16, 22]: 0%; Growth inhibition rate (%) Redroot pigweed [17, 22]: 0%; Growth inhibition rate (%) Green foxtail [18, 22]: 100%; Growth inhibition rate (%) Corn (corn (Zea mays L.) [19]; [22]): 20%; Growth inhibition rate (%) Barnyardgrass [20, 22]: 100% |
| CCc1ccc(Oc2nc3ccc(Cl)cc3s2)cc1-c1c(O)c(C)nn(C)c1=O [Compound 2-150] | 75 | 0 | 50 | 60 | 30 | 0 | 98 | 98 | 30 | 100 | 0 | 0 | 0 | 90 | 0 | 75 | 100 | 98 | 0 | 100 | – |
| Cc1ccc(Oc2nc3ccc(F)cc3s2)cc1-c1c(O)c(C)nn(C)c1=O [Compound 2-155] | 25 | 0 | 0 | 40 | 0 | 0 | 10 | 60 | 10 | 78 | 0 | 0 | 0 | 83 | 70 | 0 | 0 | 88 | 0 | 85 | – |
| Cc1ccc(Oc2nc3ccc(Br)cc3s2)cc1-c1c(O)c(C)nn(C)c1=O [Compound 2-156] | 0 | 0 | 10 | 93 | 0 | 0 | 30 | 98 | 0 | 98 | 0 | 0 | 0 | 75 | 15 | 0 | 0 | 98 | 0 | 83 | – |
